# pEC50: −log10 of the molar value.
# Tests used:
# Type in all cases: cell-based
# human PBMCs = assay: Compound-induced cytokine release (ELISA); conditions: IL-6, MCP-1, IL1Ra (FIG. 4A-4C); 24 hrs
# Experimental: (§1) This example evaluates the ability of Compound 1 to induce cytokine release in human PBMCs, cyno PBMCs and mouse splenocytes. Compound A and resiquimod, above, were used as controls in the assays.
# (§2) Human and cyno PBMCs, mouse splenocytes were isolated as described in previous example. On the day of the assay, 300k of PBMC or splenocytes in 50 μL of culture medium were seeded in 96-well cell culture plates. 50 μL of the test articles (formulated at 2× of starting concentration) were then added into the well. The cell mixtures were co-cultured in the presence of test articles and 10 μg/mL LPS-RS for 24 hrs (human PBMCs) or 48 hr (cyno PBMCs and mouse splenocytes). Released cytokines in cell culture medium were measured by ELISA.
# mouse splenocytes = assay: Compound-induced cytokine release (ELISA); conditions: IL-6, MCP-1, TNFα and IP-10 (FIG. 6A-6D); 48 hr
# Experimental: as §1, §2
# human TLR4 = molecular target: T1, human TLR4 (Homo sapiens, UniProt O00206+Q9Y6Y9); assay: HEK293 SEAP reporter assay, other TLRs (Biological Example 3); conditions: 16 hrs, up to 1 μM
# T1 construct: host or cells: HEK293
# mouse TLR2 = molecular target: T2, mouse TLR2 (Mus musculus, UniProt Q9QUN7); assay: as above; conditions: 16 hrs, up to 1 μM
# T2 construct: host or cells: HEK293
# human TLR3 = molecular target: T3, human TLR3 (Homo sapiens, UniProt O15455); assay: as above; conditions: 16 hrs, up to 1 μM
# T3 construct: host or cells: HEK293
# T3 sequence (O15455 24-904): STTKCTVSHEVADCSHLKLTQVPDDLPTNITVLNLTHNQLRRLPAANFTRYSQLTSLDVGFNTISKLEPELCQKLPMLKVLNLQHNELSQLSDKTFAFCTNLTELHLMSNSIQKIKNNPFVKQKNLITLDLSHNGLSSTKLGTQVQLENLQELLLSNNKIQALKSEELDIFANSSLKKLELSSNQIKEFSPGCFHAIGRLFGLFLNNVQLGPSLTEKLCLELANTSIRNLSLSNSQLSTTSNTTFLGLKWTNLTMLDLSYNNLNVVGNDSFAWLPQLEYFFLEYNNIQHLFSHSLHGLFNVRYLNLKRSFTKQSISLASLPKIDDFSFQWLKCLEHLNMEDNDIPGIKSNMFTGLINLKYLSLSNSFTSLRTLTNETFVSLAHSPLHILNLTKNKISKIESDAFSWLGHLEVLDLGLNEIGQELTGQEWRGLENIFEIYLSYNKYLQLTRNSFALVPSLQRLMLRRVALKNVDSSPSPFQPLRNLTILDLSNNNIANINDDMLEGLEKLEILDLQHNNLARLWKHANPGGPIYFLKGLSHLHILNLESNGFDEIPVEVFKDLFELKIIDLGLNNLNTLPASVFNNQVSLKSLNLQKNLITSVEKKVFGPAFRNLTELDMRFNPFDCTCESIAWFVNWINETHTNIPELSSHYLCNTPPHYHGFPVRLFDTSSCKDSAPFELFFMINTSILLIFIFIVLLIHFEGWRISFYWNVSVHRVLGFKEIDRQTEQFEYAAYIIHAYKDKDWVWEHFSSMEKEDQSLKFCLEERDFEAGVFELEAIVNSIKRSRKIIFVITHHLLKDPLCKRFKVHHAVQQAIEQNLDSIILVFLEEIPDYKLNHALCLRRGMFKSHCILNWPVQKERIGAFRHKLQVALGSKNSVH
# T1 sequence (O00206 24-839): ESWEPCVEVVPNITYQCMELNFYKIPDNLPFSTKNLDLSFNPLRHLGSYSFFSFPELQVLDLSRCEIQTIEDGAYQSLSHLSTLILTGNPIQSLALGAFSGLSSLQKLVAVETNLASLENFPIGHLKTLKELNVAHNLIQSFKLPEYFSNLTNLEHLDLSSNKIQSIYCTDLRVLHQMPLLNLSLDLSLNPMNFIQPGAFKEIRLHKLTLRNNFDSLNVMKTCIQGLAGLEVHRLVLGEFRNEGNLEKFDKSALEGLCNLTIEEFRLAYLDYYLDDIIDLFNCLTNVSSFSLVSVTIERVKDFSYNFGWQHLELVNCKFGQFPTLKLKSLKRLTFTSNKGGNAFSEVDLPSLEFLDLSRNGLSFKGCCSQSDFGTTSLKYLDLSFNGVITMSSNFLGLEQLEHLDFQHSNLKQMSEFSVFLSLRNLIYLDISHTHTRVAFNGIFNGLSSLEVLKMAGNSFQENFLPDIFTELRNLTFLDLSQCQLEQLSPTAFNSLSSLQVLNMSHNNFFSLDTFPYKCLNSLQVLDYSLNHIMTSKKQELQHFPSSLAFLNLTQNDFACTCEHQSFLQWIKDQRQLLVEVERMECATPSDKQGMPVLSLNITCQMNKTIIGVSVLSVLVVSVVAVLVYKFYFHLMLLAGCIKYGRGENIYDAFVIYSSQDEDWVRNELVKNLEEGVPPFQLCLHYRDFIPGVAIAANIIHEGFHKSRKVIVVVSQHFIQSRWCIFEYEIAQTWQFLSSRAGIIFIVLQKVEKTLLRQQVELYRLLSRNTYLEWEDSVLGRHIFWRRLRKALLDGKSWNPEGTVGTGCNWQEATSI
# T1 sequence (Q9Y6Y9 17-160 limits assumed): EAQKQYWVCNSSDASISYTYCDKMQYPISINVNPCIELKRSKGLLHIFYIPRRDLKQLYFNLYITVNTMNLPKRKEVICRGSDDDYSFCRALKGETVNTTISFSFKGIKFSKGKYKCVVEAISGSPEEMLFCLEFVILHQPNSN
# T2 sequence (Q9QUN7 25-784): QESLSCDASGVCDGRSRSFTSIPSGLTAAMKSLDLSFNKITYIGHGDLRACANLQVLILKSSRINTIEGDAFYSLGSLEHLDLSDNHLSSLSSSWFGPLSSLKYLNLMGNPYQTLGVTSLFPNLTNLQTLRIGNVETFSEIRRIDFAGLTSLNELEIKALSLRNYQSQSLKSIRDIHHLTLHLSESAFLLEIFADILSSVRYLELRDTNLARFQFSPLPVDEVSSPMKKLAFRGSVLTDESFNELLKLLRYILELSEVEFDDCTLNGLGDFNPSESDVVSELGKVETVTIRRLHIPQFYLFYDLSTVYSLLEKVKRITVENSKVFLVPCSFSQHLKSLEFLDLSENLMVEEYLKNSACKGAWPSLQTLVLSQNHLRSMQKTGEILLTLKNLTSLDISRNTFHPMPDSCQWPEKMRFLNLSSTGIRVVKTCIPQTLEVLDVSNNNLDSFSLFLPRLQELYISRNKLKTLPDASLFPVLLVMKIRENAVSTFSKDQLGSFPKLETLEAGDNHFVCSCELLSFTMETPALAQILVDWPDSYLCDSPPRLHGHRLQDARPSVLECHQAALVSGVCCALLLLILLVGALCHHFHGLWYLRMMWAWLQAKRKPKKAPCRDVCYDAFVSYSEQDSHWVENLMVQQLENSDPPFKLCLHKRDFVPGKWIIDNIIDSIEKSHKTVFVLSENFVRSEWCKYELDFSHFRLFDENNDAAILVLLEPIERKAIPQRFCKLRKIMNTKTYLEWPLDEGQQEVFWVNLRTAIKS
pEC50 (human TLR4),pEC50 (mouse TLR2),pEC50 (human TLR3),SMILES,cytokine release from human PBMCs (human PBMCs),cytokine release from mouse splenocytes (mouse splenocytes)
< 6.00,< 6.00,< 6.00,"CCCCn1nc2c(N)nc3ccccc3c2c1Cc1ccc(CN)cc1 [Compound 1, 1-(4-(aminomethyl)benzyl)-2-butyl-2H-pyrazolo[3,4-c]quinolin-4-amine]",stimulated strong,stimulated strong
< 6.00,< 6.00,< 6.00,"CCCCc1nc2c(N)nc3ccccc3c2n1Cc1ccc(CN)cc1 [Compound A, reference compound]",,

# — patent US20220259202A1, “1-(4-(AMINOMETHYL)BENZYL)-2-BUTYL-2H-PYRAZOLO[3,4-C]QUINOLIN-4-AMINE DERIVATIVES AND RELATED COMPOUNDS AS TOLL-LIKE RECEPTOR (TLR) 7/8 AGONISTS, AS WELL AS ANTIBODY DRUG CONJUGATES THEREOF FOR USE IN CANCER THERAPY AND DIAGNOSIS” (SUTRO BIOPHARMA, INC., priority 2019, published 2022)
